Measurements taken from US10842884B2, “Endosomolytic agents for gene therapy” (UCB Biopharma SRL, priority 2016, dated 2020).
Structures can show the parent of a compound that is named as a salt.

Key:
[1] = tested on: Chinese Hamster Ovary (CHO) cells; test: Transfection of CHO cells using lipopolyplexes, β-galactosidase reporter gene expression; assay type: cell-based
Text: Transfection of Chinese Hamster Ovary (CHO) Cells Using Lipopolyplexes
Plasmid pEGlacZ containing the bacterial β-galactosidase gene under the control of the human cytomegalovirus immediate early promoter was constructed using standard molecular cloning techniques. The 7676 base pair (bp) plasmid was derived by cleavage of pGFP-N1 (Clontech) with HindIII and BclI to remove the reporter gene fragment. The β-galactosidase coding region from pSV-β-galactosidase (Promega) was then inserted via a HindIII to BamHI fragment. Plasmid DNA was then purified using an anion-exchange column (Qiagen Ltd). The average molecular weight per base pair was calculated to be 620.84 Da (310.5 Da for a monophosphorylated nucleotide). The amount of negative charge on the plasmid was then determined on the basis that a single negative charge is associated with each nucleotide.
[…] Lipid films were formed by rotary evaporation at 60° C. and further dried on a freeze drier overnight. Rehydration of the lipid film was performed by adding 4 mL of deionised water and […] 1M NaOH at 60° C. with vigorous agitation in the presence of […] diameter glass beads, taking care to maintain pH in the range 7.5 to 8.0, resulting in the formation of multi-lamellar vesicles (MLVs).
Stock solutions of R26 peptide as a DNA condensing agent at 144 μg/ml and plasmid DNA at 60 μg/ml were prepared in de-ionized water. Equal volumes of each were mixed by adding the plasmid DNA drop-wise to the R26 solution with vortexing. The charge ratio of the polyplex was 3.9:1 (peptide positive charged residues to DNA negative charged phosphates).
The polyplex preparation was diluted in 10 mM HEPES buffer pH 8 to 15 μg/ml DNA equivalent. […] Lipopolyplexes were formed by adding equal volumes of polyplex solution drop-wise to liposome suspension with vortexing.
CHO cells were seeded into 24-wellplates at 100 000 cells per well in Opti-MEM (Gibco BRL) media containing 10% dialysed foetal calf serum (FCS, Gibco BRL) and maintained 37° C. in 5% CO2 incubator for 24 h before the experiment. The adherent cells were washed once in Opti-MEM (Gibco BRL) prior to transfection. Washed medium was removed and replaced with 0.5 ml of Opti-MEM to which 167 μl of lipopolyplex was added ([…]). Individual lipopolyplex preparations were tested in triplicate wells. Cells were incubated for a further 4 h at 37° C. in 5% CO2 before removal of the medium and non-cell associated lipopolyplex and addition of 1 ml of fresh medium (Dulbecco's modified Eagle's medium (DMEM), plus glutamate, asparagine, adenosine, guanosine, cytidine, uridine, thymidine and 10% FCS.
Cells were cultured for a further 72 h before harvesting, the medium was aspirated and the cells washed twice with 1 ml phosphate buffered saline. Cells were lysed by the addition of 200 μl per well of lysis buffer (Promega) and the plate was agitated on an orbital mixer for 15 min. The lysates were transferred to individual Eppendorf tubes, taking care to remove attached cells by scraping with a pipette tip prior to removal. Cell debris was removed by centrifugation in a microfuge for 5 min followed by transfer of the supernatant into clean Eppendorf tubes.
Levels of β-galactosidase (β-gal) activity were determined using a colorimetric enzyme assay kit (Promega) as follows: 50 μl of cell extract was incubated with the kit substrate, O-nitrophenyl-β-D-galactopyranoside in buffer solution for 30 min at 37° C. The reaction was stopped by the addition of 150 μl of 1M sodium carbonate and the absorbance measured at 420 nm (Multiskan Ascent plate reader, Labsystems). Absorbance values were interpolated from a calibration curve to give enzyme activity in mU per ml. In turn these values were normalised in reference to lysate protein concentration as determined by a BCA assay kit (Pierce) and expressed as mU of β-gal per mg of protein.
An anionic liposome composition was evaluated comprising DOPC and CHEMS in the presence and absence of Compound 2. […]

**Q.** For `CCCCCCCCCCCCCCCCCCOC[C@@H](COP(=O)(OCCCCCCCCCCCc1cc(CC(C)(C)C(=O)OC)cc(CC(C)(C)C(=O)OC)c1)Oc1ccccc1Cl)OCCCCCCCCCCCCCCCCCC` (stereo partly shown), which melting point is on record?
**A.** Its melting point is 27 to 27.5 °C.

**Q.** Which reporter gene expression ([1]; Example 22, FIG. 1, cholesterol/oleic acid totally substituted with Compound 2 at 40 mol %) does the source give for `CC(C)CCCC(C)C1CCC2C3CC=C4C[C@H](OP(=O)(O)OCCCCCCCCCCCc5cc(CC(C)(C)C(=O)O)cc(CC(C)(C)C(=O)O)c5)CC[C@]4(C)C3CC[C@]12C` (stereo partly drawn) [Compound 2, 3,3′-(5-(11-(((((3R,10R,13R)-10,13-Dimethyl-17-(6-methylheptan-2-yl)-2,3,4,7,8,9,10,11,12,13,14,15,16,17-tetradecahydro-1H-cyclopenta[a]phenanthren-3-yl)oxy)(hydroxy)phosphoryl)oxy)undecyl)-1,3-phenylene)bis(2,2-dimethylpropanoic acid), ammonium salt] here?
**A.** Its reporter gene expression is “highest”.

**Q.** What about the “reporter gene expression levels” value ([1]; Example 22, FIG. 1, higher lipid to DNA ratios (above 2:1), exception: 5:1 lipid to DNA with 20 mol % Compound 2) of the same compound?
**A.** The value was “not significant”.

**Q.** And the reporter gene expression ([1]; Example 22, FIG. 1, lipid to DNA ratio 2:1, Compound 2 content 1 to 40 mol %)?
**A.** The reporter gene expression was “increased with increasing content of Compound 2”.

**Q.** And the “expression of β-galactosidase” value ([1]; Example 22, FIG. 1, lipopolyplexes with cholesterol, oleic acid and DOPC, 1 mol % Compound 2)?
**A.** The value was “little or no expression”.

**Q.** What about the “levels of β-galactosidase expression” value ([1]; Example 23, FIG. 2, DOPC/CHEMS lipopolyplexes, 20 mol % Compound 2, lipid to DNA ratios 0.6:1 to 5.5:1) of the same compound?
**A.** Its value is “high, significant levels”.

**Q.** And the “transfection enhancement via endosomolytic properties” value ([1]; overall conclusion from Examples 22 and 23)?
**A.** Its value is “confirming the effectiveness of Compound 2 as a transfection enhancing agent”.
